According to BindingDB's records for doi:10.1021/jm501113m (Duquesne University, 2014):
pIC50: −log10 of the molar value.

Experiments:
[1] = Inhibition of FRalpha (unknown origin) expressed in Chinese hamster RT16 cells assessed as cell growth inhibition incubated up to 96 hrs by Celltiter-blue cell viability assay
[2] = Inhibition of FRalpha (unknown origin) expressed in Chinese hamster RT16 cells assessed as cell growth inhibition incubated up to 96 hrs in presence of 200 nM folic acid by Celltiter-blue cell viability assay
[3] = Inhibition of RFC (unknown origin) expressed in Chinese hamster PC43-10 cells assessed as cell growth inhibition incubated up to 96 hrs by Celltiter-blue cell viability assay
[4] = Inhibition of FRbeta (unknown origin) expressed in Chinese hamster D4 cells assessed as cell growth inhibition incubated up to 96 hrs in presence of 200 nM folic acid by Celltiter-blue cell viability assay
[5] = Inhibition of FRbeta (unknown origin) expressed in Chinese hamster D4 cells assessed as cell growth inhibition incubated up to 96 hrs by Celltiter-blue cell viability assay
[6] = Inhibition of PCFT (unknown origin) expressed in Chinese hamster R2/PCFT4 cells assessed as cell growth inhibition incubated up to 96 hrs by Celltiter-blue cell viability assay

Question: With `Nc1nc2[nH]c(CCCc3ccc(C(=O)N[C@@H](CCCC(=O)O)C(=O)O)s3)cc2c(=O)[nH]1` as the compound, how does the pIC50 [1] read?
Answer: 8.02

Question: And the pIC50 [2]?
Answer: < 6.00

Question: What about the pIC50 [3] of the same compound?
Answer: < 6.00

Question: And the pIC50 [4]?
Answer: < 6.00

Question: And the pIC50 [5]?
Answer: 8.44

Question: What about the pIC50 [6] of the same compound?
Answer: < 6.00

Question: Which results are given for `CCC[C@H](NC(=O)c1ccc(CCCc2cc3c(=O)[nH]c(N)nc3[nH]2)s1)C(=O)O`?
Answer: pIC50 [1]: 7.25; pIC50 [2]: < 6.00; pIC50 [3]: < 6.00; pIC50 [4]: < 6.00; pIC50 [5]: < 6.00; pIC50 [6]: < 6.00

Question: Which results are given for `Nc1nc2[nH]c(CCCc3ccc(C(=O)NCCCC(=O)O)s3)cc2c(=O)[nH]1`?
Answer: pIC50 [1]: 7.57; pIC50 [2]: < 6.00; pIC50 [3]: < 6.00; pIC50 [4]: < 6.00; pIC50 [5]: < 6.00; pIC50 [6]: < 6.00

Question: With `Nc1nc2[nH]c(CCCc3ccc(C(=O)N[C@@H](CC(=O)O)C(=O)O)s3)cc2c(=O)[nH]1` as the compound, how does the pIC50 [1] read?
Answer: 8.18

Question: And the pIC50 [2]?
Answer: < 6.00

Question: What about the pIC50 [3] of the same compound?
Answer: < 6.00

Question: What about the pIC50 [4] of the same compound?
Answer: < 6.00

Question: And the pIC50 [5]?
Answer: 6.46

Question: And the pIC50 [6]?
Answer: < 6.00

Question: With `Nc1nc2[nH]c(CCCc3ccc(C(=O)O)s3)cc2c(=O)[nH]1` as the compound, how does the pIC50 [1] read?
Answer: 6.18

Question: What about the pIC50 [2] of the same compound?
Answer: < 6.00

Question: What about the pIC50 [3] of the same compound?
Answer: < 6.00

Question: And the pIC50 [4]?
Answer: < 6.00

Question: And the pIC50 [5]?
Answer: < 6.00

Question: And the pIC50 [6]?
Answer: < 6.00
